From patent publication US20220401514A1, “ANTIMICROBIAL, BACTERIOPHAGE-DERIVED POLYPEPTIDES AND THEIR USE AGAINST GRAM-NEGATIVE AND ACID-FAST BACTERIA” (CONTRAFECT CORPORATION, priority 2019, published 2022)
Read-outs that look alike come from different tables or passages of the source.

Experiments:
[1] = tested on: carbapenem-resistant P. aeruginosa clinical isolate CFS-1292; assay: MIC by modified CLSI broth microdilution against P. aeruginosa CFS-1292 (CAA, CAA + human serum); assay type: cell-based, Pseudomonas aeruginosa; conditions: for MIC (μg/mL) against CFS-1292 in 100% CAA (1st run/2nd run): 1st run or single value
[2] = tested on: Pseudomonas aeruginosa; assay: microbe, parasite or virus in culture; assay type: cell-based; conditions: P. aeruginosa isolates (n per peptide in table)
[3] = tested on: Enterobacter cloacae; assay: microbe, parasite or virus in culture; assay type: cell-based; conditions: for MIC50 / MIC100 / MIC Range: E. cloacae isolates (n per peptide in table); for MIC: Enterobacter cloacae ATCC 13047, CAA supplemented with human serum
Procedure, shortened: (§1)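 Human serum was added to CAA broth for these MIC determinations with peptides.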

[4] = tested on: Escherichia coli; assay: microbe, parasite or virus in culture; assay type: cell-based; conditions: for MIC50 / MIC100 / MIC Range: E. coli isolates (n per peptide in table); for MIC: Escherichia coli ATCC 25922, CAA supplemented with human serum
Procedure, shortened: as §1

[5] = tested on: Klebsiella pneumoniae; assay type: cell-based; conditions: for MIC50 / MIC100 / MIC Range: K. pneumoniae isolates (n per peptide in table); for MIC: Klebsiella pneumoniae HM-44, CAA supplemented with human serum
Method: (§2) Determination of Minimal Inhibitory Concentrations (MIC).
(§3) Additional MIC testing was performed for several peptides against the ESKAPE pathogens Escherichia coli, Enterobacter cloacae, Klebsiella pneumoniae, and Acinetobacter baumannii, in CAA supplemented with human serum (Table D).

[6] = tested on: Acinetobacter baumannii; assay: microbe, parasite or virus in culture; assay type: cell-based; conditions: for MIC50 / MIC100 / MIC Range: A. baumannii isolates (n per peptide in table); for MIC: Acinetobacter baumannii ATCC BAA 747, CAA supplemented with human serum
[7] = tested on: S. maltophilia; assay: MIC against S. maltophilia isolates; assay type: cell-based, Stenotrophomonas maltophilia
Procedure, shortened: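 Chp peptides were tested on a set of S. maltophilia isolates (n = isolates per species), with minimal inhibitory concentrations given in μg/mL.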

[8] = tested on: Pseudomonas aeruginosa, Escherichia coli, Enterobacter cloacae, Klebsiella pneumoniae, and Acinetobacter baumannii; assay: MIC against a range of Gram-negative organisms (statements covering several species); assay type: cell-based; conditions: Tables 40-44 isolates
Method: as §2, §3

[9] = tested on: carbapenem-resistant bacterial strains; assay: organism not typed; assay type: cell-based
Description: as §2

[10] = Stability assessment in 100% CAA; assay type: in vitro ADME; parameters: unit not given beside the values
Method: Stability was assessed after incubation in 100% human serum at 37° C. after 10 minutes, 1 hour, and 2 hours.
Stability assessment was further conducted in 100% CAA and rabbit serum using the same methodology discussed above.

[11] = tested on: M. smegmatis; assay: 45 hr MIC against M. smegmatis (NTM), Mueller Hinton broth; assay type: cell-based, Mycobacterium smegmatis
[12] = tested on: M. fortuitum; assay: 45 hr MIC against M. fortuitum (NTM); assay type: cell-based, Mycobacterium fortuitum; conditions: M. fortuitum subsp. Fortuitum da Costa Cruz. ATCC 6841
[13] = tested on: M. avium; assay: 45 hr MIC against M. avium (NTM); assay type: cell-based, Mycobacterium avium; conditions: M. avium Chester ATCC 700898
[14] = tested on: M. scrofulaceum; assay: 45 hr MIC against M. scrofulaceum (NTM); assay type: cell-based, Mycobacterium scrofulaceum; conditions: M. scrofulaceum Prissick and Masson ATCC 19981
[15] = tested on: M. intracellulare; assay: 45 hr MIC against M. intracellulare (NTM); assay type: cell-based, Mycobacterium intracellulare; conditions: M. intracellulare (Cuttino and McCabe) Runyon ATCC 13950
[16] = tested on: P. aeruginosa strain CFS-1292; assay: MIC in presence and absence of NaCl (140 mM); assay type: cell-based, Pseudomonas aeruginosa; conditions: for Fold change in MIC: CAA + 140 mM NaCl versus CAA without added NaCl; for MIC, CAA + 140 mM NaCl / MIC, CAA (no added NaCl): P. aeruginosa CFS-1292
Method: Certain Chp peptides were evaluated over a range of physiological NaCl levels and pH values, and were further evaluated for activity in the presence of various divalent cations.

[17] = tested on: P. aeruginosa strain CFS-1292; assay: MIC at pH 6, pH 7 and pH 8; assay type: cell-based, Pseudomonas aeruginosa
Method: The Chp peptides were further evaluated at varying pH levels. The MIC values were determined at pH 6, pH 7, and pH 8 for 18 different Chp peptides against P. aeruginosa strain CFS-1292. […]

[18] = tested on: P. aeruginosa strain CFS-1292; assay: MIC in presence of divalent cations (calcium chloride, magnesium sulfate); assay type: cell-based, Pseudomonas aeruginosa
Method: Next, Chp peptides were evaluated in the presence of different divalent cations. […]; (2) in the presence of 2 mM calcium chloride alone; (3) in the presence of 1 mM magnesium sulfate alone; and (4) in the presence of both 2 mM calcium chloride and 1 mM magnesium sulfate. […]

[19] = tested on: P. aeruginosa strain CFS-1292; assay: MIC in presence and absence of Survanta pulmonary surfactant; assay type: cell-based, Pseudomonas aeruginosa
[20] = tested on: P. aeruginosa strain CFS-1292; assay: MIC in presence of mouse, rat, rabbit and human serum ([…] each); assay type: cell-based, Pseudomonas aeruginosa; conditions: P. aeruginosa CFS-1292
Method: The activity of several Chp peptides against P. aeruginosa strain CFS-1292 in animal serum was evaluated. […] Rat, mouse, and rabbit serum were all obtained from pooled gender samples.

[21] = tested on: M. kansasii Hauduroy ATCC 12478; assay: 45 hr MIC against M. kansasii (NTM), Mueller Hinton broth; assay type: cell-based, Mycobacterium kansasii
[22] = tested on: Mycobacterium tuberculosis strains
Method: MIC values for various Chp peptides were determined using the CLSI method for broth microdilution in 96-well microtiter format.
Next, MIC values for various Chp peptides were determined using the CLSI method above for broth microdilution in 96-well microtiter format for two different Mycobacterium tuberculosis strains. The MIC was determined as explained above for the NTM strains.

[23] = S. maltophilia isolates (n per peptide in table)
[24] = carbapenem-resistant isolate PA19
[25] = carbapenem-resistant isolate PA20
[26] = carbapenem-resistant isolate PA21
[27] = carbapenem-resistant isolate PA22
[28] = carbapenem-resistant isolate PA23
[29] = carbapenem-resistant isolate PA24
[30] = carbapenem-resistant isolate WLC-452
[31] = CAA media + 0.19 mg/mL Survanta
[32] = Mycobacterium tuberculosis (Zopf) Lehmann and Neumann ATCC 25177
[33] = Mycobacterium tuberculosis (Zopf) Lehmann and Neumann ATCC 35817

MARSRRRMSKRSSRRSFRKYAKTHKKNFKARSMRGGIRL [Ecp3]
MIC (μg/mL) against CFS-1292 in 100% CAA (1st run/2nd run) [1]: 0.5 µg/mL | MIC (μg/mL) against CFS-1292 in CAA + […] human serum [1]: 0.5 µg/mL | MIC50 [2]: 2 µg/mL | MIC100 [2]: 4 µg/mL | MIC Range [2]: 0.5 to 4 µg/mL | MIC50 [3]: 0.5 µg/mL | MIC100 [3]: 4 µg/mL | MIC Range [3]: 0.25 to 4 µg/mL | MIC [3]: 4 µg/mL | MIC50 [4]: 1 µg/mL | MIC100 [4]: 2 µg/mL | MIC Range [4]: 0.125 to 8 µg/mL | MIC [4]: 1 µg/mL | MIC50 [5]: 1 µg/mL | MIC100 [5]: 2 µg/mL | MIC Range [5]: 0.5 to 4 µg/mL | MIC [5]: 0.5 µg/mL | MIC50 [6]: 0.25 µg/mL | MIC100 [6]: 0.5 µg/mL | MIC Range [6]: 0.125 to 0.5 µg/mL | MIC [6]: 2 µg/mL | MIC50 [7, 23]: 4 µg/mL | MIC100 [7, 23]: >8 µg/mL | activity (good = MIC100 of ≤4) against all of P. aeruginosa, K. pneumoniae, A. baumannii, E. cloacae, and E. coli [8]: good activity | MIC [9, 24]: 0.5 µg/mL | MIC [9, 25]: 4 µg/mL | MIC [9, 26]: 4 µg/mL | MIC [9, 27]: 4 µg/mL | MIC [9, 28]: 2 µg/mL | MIC [9, 29]: 2 µg/mL | MIC [9, 30]: 1 µg/mL | MIC (100% CAA) [10]: 0.5 | 45 hr MIC ([11]; M. smegmatis MC^2 155, Run #1): 4 µg/mL | 45 hr MIC ([11]; M. smegmatis MC^2 155, Run #2): 8 µg/mL | 45 hr MIC [12]: 2 µg/mL | 45 hr MIC [13]: 1 µg/mL | 45 hr MIC [14]: 2 µg/mL | 45 hr MIC [15]: 8 µg/mL | Fold change in MIC [16]: 4 | MIC, CAA + 140 mM NaCl [16]: 2 µg/mL | MIC, CAA (no added NaCl) [16]: 0.5 µg/mL | MIC ([17]; CAA media (pH 7)): 1 µg/mL | MIC ([17]; pH 6): 2 µg/mL | MIC ([17]; pH 7): 2 µg/mL | MIC ([17]; pH 8): 2 µg/mL | MIC ([18]; CAA media + 1 mM MgSO4): 2 µg/mL | MIC ([18]; CAA media + 2 mM CaCl2): 2 µg/mL | MIC ([18]; CAA media + + 1 mM MgSO4): 2 µg/mL | MIC ([18]; CAA media alone): 1 µg/mL | MIC [19, 31]: 0.5 µg/mL | MIC ([19]; CAA media + […] Survanta): 0.5 µg/mL | MIC ([19]; CAA media alone): 0.5 µg/mL | MIC BALB/C Mouse Serum [20]: >32 µg/mL | MIC CAA [20]: 0.5 µg/mL | MIC New Zealand White Rabbit Serum [20]: 8 µg/mL | MIC Sprague Dawley Rat Serum [20]: 8 µg/mL | MIC Human Serum [20]: 0.5 µg/mL | 45 hr MIC [21]: 2 µg/mL | MIC [22, 32]: 16 µg/mL | MIC [22, 33]: 8 µg/mL

MRRRRLSRRTSRRFFRKGLKVRRRNLRARPMRGGFRI [Unp2]
MIC (μg/mL) against CFS-1292 in 100% CAA (1st run/2nd run) [1]: 0.5 µg/mL | MIC (μg/mL) against CFS-1292 in CAA + […] human serum [1]: 0.5 µg/mL | MIC50 [2]: 1 µg/mL | MIC100 [2]: 1 µg/mL | MIC Range [2]: 0.5 to 2 µg/mL | MIC50 [3]: 0.25 µg/mL | MIC100 [3]: 0.5 µg/mL | MIC Range [3]: 0.25 to 2 µg/mL | MIC [3]: 16 µg/mL | MIC50 [4]: 0.25 µg/mL | MIC100 [4]: 1 µg/mL | MIC Range [4]: 0.125 to 1 µg/mL | MIC [4]: 0.25 µg/mL | MIC50 [5]: 0.5 µg/mL | MIC100 [5]: 1 µg/mL | MIC Range [5]: 0.25 to 1 µg/mL | MIC [5]: 0.125 µg/mL | MIC50 [6]: 0.5 µg/mL | MIC100 [6]: 0.5 µg/mL | MIC Range [6]: 0.25 to 1 µg/mL | MIC [6]: 1 µg/mL | MIC50 [7, 23]: 0.5 µg/mL | MIC100 [7, 23]: 1 µg/mL | MIC Range [7, 23]: 0.25 to 2 µg/mL | activity against S. maltophilia ([7]; Table 45 isolates): active | activity (good = MIC100 of ≤4) against all of P. aeruginosa, K. pneumoniae, A. baumannii, E. cloacae, and E. coli [8]: good activity | MIC [9, 24]: 0.5 µg/mL | MIC [9, 25]: 1 µg/mL | MIC [9, 26]: 2 µg/mL | MIC [9, 27]: 1 µg/mL | MIC [9, 28]: 1 µg/mL | MIC [9, 29]: 1 µg/mL | MIC [9, 30]: 0.5 µg/mL | MIC (100% CAA) [10]: 0.25 | 45 hr MIC ([11]; M. smegmatis MC^2 155, Run #1): 2 µg/mL | 45 hr MIC ([11]; M. smegmatis MC^2 155, Run #2): 4 µg/mL | 45 hr MIC [12]: 2 µg/mL | 45 hr MIC [13]: 0.5 µg/mL | 45 hr MIC [14]: 4 µg/mL | 45 hr MIC [15]: 1 µg/mL | Fold change in MIC [16]: 4 | MIC, CAA + 140 mM NaCl [16]: 2 µg/mL | MIC, CAA (no added NaCl) [16]: 0.5 µg/mL | MIC ([17]; CAA media (pH 7)): 0.5 µg/mL | MIC ([17]; pH 6): 0.5 µg/mL | MIC ([17]; pH 7): 0.5 µg/mL | MIC ([17]; pH 8): 0.5 µg/mL | MIC ([18]; CAA media + 1 mM MgSO4): 0.25 µg/mL | MIC ([18]; CAA media + 2 mM CaCl2): 0.25 µg/mL | MIC ([18]; CAA media + + 1 mM MgSO4): 0.5 µg/mL | MIC ([18]; CAA media alone): 0.25 µg/mL | MIC [19, 31]: 0.5 µg/mL | MIC ([19]; CAA media + […] Survanta): 0.5 µg/mL | MIC ([19]; CAA media alone): 0.5 µg/mL | MIC BALB/C Mouse Serum [20]: >32 µg/mL | MIC CAA [20]: 0.5 µg/mL | MIC New Zealand White Rabbit Serum [20]: 4 µg/mL | MIC Sprague Dawley Rat Serum [20]: 8 µg/mL | MIC Human Serum [20]: 0.5 µg/mL | 45 hr MIC [21]: 2 µg/mL | MIC [22, 32]: 16 µg/mL | MIC [22, 33]: 4 µg/mL
